Data set [1] is described as follows: Chemical stability of compound in 0.1 N aqueous HCl buffer assessed as compound remaining at pH 1 at 5 uM measured after 24 hrs by LC-MS/MS analysis. It counts as physicochemical. To be noted: pH 1, 24 h.
The nature of data set [2]: Stability in human plasma assessed as parent compound remaining measured after 24 hrs by LC-MS/MS analysis. It is filed as ADME, cell-free. The note with it: read-out: Stabilty.
Data set [3] can be described thus: Chemical stability of compound in simulated gastric fluid assessed as compound remaining at 5 uM measured after 24 hrs by LC-MS/MS analysis. It counts as ADME, physicochemical. The note with it: read-out: Stabilty.
Data set [4] in a line: Chemical stability of compound in PBS buffer assessed as compound remaining at pH 7.4 at 5 uM measured after 6 hrs by LC-MS/MS analysis. It counts as physicochemical. To be noted: read-out: Stabilty.
Data set [5] in a line: Chemical stability of compound in simulated intestinal fluid assessed as compound remaining at 5 uM measured after 24 hrs by LC-MS/MS analysis. It counts as ADME, physicochemical. To be noted: read-out: Stabilty.
Data set [6] in a line: Stability in rat plasma assessed as parent compound remaining measured after 2 hrs by LC-MS/MS analysis. It counts as ADME, cell-free. The note with it: read-out: Stabilty.
Data set [7] is described as follows: Chemical stability of compound in simulated gastric fluid assessed as compound remaining at 5 uM measured after 1.5 hrs by LC-MS/MS analysis. It is filed as ADME, physicochemical. The note with it: read-out: Stabilty.
The nature of data set [8]: Chemical stability of compound in PBS buffer assessed as compound remaining at pH 7.4 at 5 uM measured after 24 hrs by LC-MS/MS analysis. To be noted: read-out: Stabilty. It is filed as physicochemical.
Data set [9] can be described thus: Change in normalised AUCinfinity in rat at 10 mg/kg, po measured upto 72 hrs by LC-MS/MS analysis. It counts as ADME, organism-based. The note with it: in vivo.
Data set [10] in a line: Chemical stability of compound in simulated intestinal fluid assessed as compound remaining at 5 uM measured after 3 hrs by LC-MS/MS analysis. It is filed as ADME, physicochemical. To be noted: read-out: Stabilty.
A short description of data set [11]: Dose normalized AUC (0 to infinity) in rat at 10 mg/kg, po measured upto 72 hrs by LC-MS/MS analysis. It is filed as ADME, organism-based. The note with it: in vivo.
Data set [12] is described as follows: Chemical stability of compound in saline assessed as compound remaining at 5 uM measured after 24 hrs by LC-MS/MS analysis. It is filed as physicochemical. The note with it: read-out: Stabilty.
Data set [13] can be described thus: Stability in human plasma assessed as parent compound remaining measured after 6 hrs by LC-MS/MS analysis. The note with it: read-out: Stabilty. It counts as ADME, cell-free.
A short description of data set [14]: Chemical stability of compound in 0.1 N aqueous HCl buffer assessed as compound remaining at pH 1 at 5 uM measured after 1.5 hrs by LC-MS/MS analysis. To be noted: pH 1, 1.5 h. It counts as physicochemical.
The nature of data set [15]: Stability in mouse plasma assessed as parent compound remaining measured after 2 hrs by LC-MS/MS analysis. It is filed as ADME, cell-free. To be noted: read-out: Stabilty.
The nature of data set [16]: Dose normalized Cmax in rat at 10 mg/kg, po measured upto 72 hrs by LC-MS/MS analysis. It counts as ADME, organism-based. To be noted: in vivo.
A short description of data set [17]: Change in normalised Cmax in rat at 10 mg/kg, po measured upto 72 hrs by LC-MS/MS analysis. It counts as ADME, organism-based. The note with it: in vivo.

This is an account of results in ChEMBL document CHEMBL4837181 (Eur J Med Chem, 2020).

For `Cl.Cn1cc(C[C@@H](NC(=O)[C@@H](N)Cc2ccccc2)C(=O)O)c2ccccc21`, the Stabilty in data set [1] is listed as 92%; in [14] it was 96%. Further, the remaining at 24 h in data set [2] was found to be 75%. In addition, the remaining at 24 h, 5 µM in data set [3] is 80%; in data set [5] it was 0%; in data set [8], 92%; in [12], 92%. In addition, the remaining at 6 h, 5 µM in data set [4] amounted to 89%. In addition, the remaining at 2 h in data set [6] was determined as 19%; in data set [15], 66%. The remaining at 1.5 h, 5 µM in [7] is 79%. The Activity is listed as -16% in data set [9] and -31% in data set [17]. Moreover, the remaining at 3 h, 5 µM in data set [10] was 91%. The compound also had an AUC/dose in data set [11] of 425 µM·h. In addition, in data set [13], the remaining at 6 h is 87%. The Cmax/dose in [16] was 11.9 µM.
As to `CC(C)[C@H](N)C(=O)N[C@H](Cc1cn(C)c2ccccc12)C(=O)O.Cl`, the figures for the Stabilty in [1] and in data set [14] were 99% and 98%, respectively. Besides, the remaining at 24 h in data set [2] was determined as 47%. For the same compound, the remaining at 24 h, 5 µM in data set [3] was 50%; in data set [5], 76%; in data set [8], 44%; in data set [12], 99%. For the same compound, the remaining at 6 h, 5 µM in [4] turned out to be 91%. The values for the remaining at 2 h in data set [6] and in data set [15] were 9% and 57%, respectively. In data set [7], the remaining at 1.5 h, 5 µM was 55%. The Activity in data set [9] is recorded as -33%; in data set [17], -18%. Moreover, the remaining at 3 h, 5 µM in data set [10] is 78%. In data set [11], this compound yielded an AUC/dose of 338 µM·h. The remaining at 6 h in [13] is 79%. For the same compound, the Cmax/dose in data set [16] is 14.2 µM.
As for `CC[C@H](C)[C@H](N)C(=O)N[C@H](Cc1cn(C)c2ccccc12)C(=O)O.Cl`, the Stabilty amounted to 98% in data set [1] and 92% in [14]. For the same compound, the remaining at 24 h in [2] is 86%. Also, the remaining at 24 h, 5 µM in data set [3] is 77%; in data set [5] it was 0%; in data set [8], 100%; in [12], 98%. Besides, the remaining at 6 h, 5 µM in data set [4] came out at 100%. Also, the figures for the remaining at 2 h in [6] and in [15] were 54% and 80%, respectively. In addition, the remaining at 1.5 h, 5 µM in data set [7] was 81%. Also, the Activity in data set [9] is recorded as -38%; in [17], -28%. In [10], the remaining at 3 h, 5 µM was 94%. In [11], this compound came in with an AUC/dose of 316 µM·h. For the same compound, the remaining at 6 h in [13] came to 84%. In addition, in data set [16], the Cmax/dose is 12.5 µM.
In the case of `CC(C)C(NC(=O)[C@H](N)Cc1cn(C)c2ccccc12)C(=O)O.Cl` (single isomer, unassigned), the Stabilty came out at 98% in data set [1] and 51% in data set [14]. Moreover, the remaining at 24 h in [2] worked out at 39%. Besides, the remaining at 24 h, 5 µM was 49% in [3], 64% in data set [5], 37% in data set [8] and 98% in [12]. Besides, in data set [4], the remaining at 6 h, 5 µM came out at 99%. For the same compound, the values for the remaining at 2 h in data set [6] and in data set [15] were 100% and 89%, respectively. In [7], the remaining at 1.5 h, 5 µM is 54%. The Activity in data set [9] is reported as -60%; in data set [17], -91%. Moreover, the remaining at 3 h, 5 µM in data set [10] is 62%. Moreover, the AUC/dose in data set [11] stood at 202 µM·h. Besides, the remaining at 6 h in [13] was determined as 68%. In data set [16], this compound showed a Cmax/dose of 1.6 µM.
In the case of `CCOC(=O)[C@@H](Cc1cn(C)c2ccccc12)NC(=O)[C@@H](N)Cc1ccccc1.Cl`, the Stabilty in data set [1] was found to be 90%; in data set [14], 99%. In addition, the remaining at 24 h in data set [2] is 11%. The remaining at 24 h, 5 µM in data set [3] is 86%; in data set [5], 0%; in data set [8], 96%; in data set [12], 90%. Moreover, the remaining at 6 h, 5 µM in [4] is 96%. Moreover, the remaining at 2 h in data set [6] and in data set [15] was 0% throughout. Further, in data set [7], the remaining at 1.5 h, 5 µM was 89%. Further, the Activity was -35% in data set [9] and -54% in [17]. Also, the remaining at 3 h, 5 µM in data set [10] was 65%. Further, the AUC/dose in data set [11] was 329 µM·h. In data set [13], the remaining at 6 h came to 68%. In [16], this compound yielded a Cmax/dose of 7.9 µM.
Regarding `Cl.Cn1cc(C[C@@H](N)C(=O)OCC(N)C(=O)O)c2ccccc21` (single isomer, unassigned), the Stabilty in [1] was 70%; in [14] it was 10%. In addition, the remaining at 24 h in data set [2] is 0%. The remaining at 24 h, 5 µM in data set [3] was 56%; in data set [5], 0%; in [8], 0%; in [12], 70%. Besides, in data set [4], the remaining at 6 h, 5 µM turned out to be 0%. In addition, the remaining at 2 h in data set [6] turned out to be 84%; in [15] it was 80%. Moreover, the remaining at 1.5 h, 5 µM in data set [7] is 56%. For the same compound, the Activity is 16% in data set [9] and -23% in data set [17]. Besides, the remaining at 3 h, 5 µM in data set [10] was 0%. The AUC/dose in data set [11] worked out at 588 µM·h. Moreover, the remaining at 6 h in data set [13] was determined as 0%. In addition, the Cmax/dose in [16] is 13.3 µM.
For the compound `Cl.Cn1cc(C[C@@H](N)C(=O)N[C@H](Cc2cn(C)c3ccccc23)C(=O)O)c2ccccc21`, the values for the Stabilty in [1] and in data set [14] were 91% and 45%, respectively. Also, the remaining at 24 h in data set [2] is 82%. Further, the remaining at 24 h, 5 µM in data set [3] is 49%; in data set [5] it was 77%; in data set [8], 34%; in [12], 91%. Besides, the remaining at 6 h, 5 µM in data set [4] turned out to be 100%. Besides, the remaining at 2 h was determined as 80% in data set [6] and 65% in data set [15]. Also, the remaining at 1.5 h, 5 µM in data set [7] was 63%. The Activity was -48% in data set [9] and -83% in data set [17]. For the same compound, the remaining at 3 h, 5 µM in [10] was 81%. Moreover, the AUC/dose in data set [11] was determined as 262 µM·h. In data set [13], the remaining at 6 h was determined as 92%. In data set [16], this compound gave a Cmax/dose of 3 µM.
On to `CN(C)CCOC(=O)[C@H](N)Cc1cn(C)c2ccccc12.Cl`, for which the Stabilty in [1] came to 47%; in data set [14], 3%. The remaining at 24 h in data set [2] was 2%. Also, the remaining at 24 h, 5 µM in data set [3] was 2%; in data set [5] it was 0%; in data set [8], 0%; in data set [12] it was 47%. Also, in data set [4], the remaining at 6 h, 5 µM is 0%. The remaining at 2 h in data set [6] and in data set [15] was 0% each time. The remaining at 1.5 h, 5 µM in data set [7] was 2%. Moreover, the Activity in [9] was determined as 44%; in data set [17] it was 128%. The remaining at 3 h, 5 µM in data set [10] was 0%. The compound further came in with an AUC/dose in [11] of 731 µM·h. The remaining at 6 h in data set [13] was determined as 10%. In [16], this compound displayed a Cmax/dose of 39.5 µM.
For the compound `Cl.Cn1cc(C[C@@H](N)C(=O)OCCC2CCOCC2)c2ccccc21`, the Stabilty worked out at 76% in data set [1] and 52% in [14]. The remaining at 24 h in data set [2] was 54%. For the same compound, the remaining at 24 h, 5 µM in data set [3] was 60%; in data set [5], 0%; in [8], 0%; in data set [12] it was 76%. In addition, the remaining at 6 h, 5 µM in data set [4] is 85%. Further, the remaining at 2 h in [6] and in data set [15] was 0% throughout. Also, the remaining at 1.5 h, 5 µM in data set [7] is 85%. Also, the Activity in data set [9] is 52%; in data set [17], -14%. Besides, the remaining at 3 h, 5 µM in data set [10] is 67%. Also, in [11], the AUC/dose was found to be 774 µM·h. The remaining at 6 h in data set [13] amounted to 85%. The same compound showed a Cmax/dose in data set [16] of 15 µM.
Turning to `Cl.Cn1cc(C[C@@H](N)C(=O)OCCC2CCNCC2)c2ccccc21`, the results for the Stabilty in [1] and in [14] were 46% and 74%, respectively. Moreover, the remaining at 24 h in data set [2] worked out at 4%. The remaining at 24 h, 5 µM in [3] is 90%; in data set [5], 8%; in [8], 22%; in data set [12] it was 46%. In addition, the remaining at 6 h, 5 µM in [4] amounted to 91%. Also, the remaining at 2 h in data set [6] and in data set [15] was 0% in each case. Moreover, the remaining at 1.5 h, 5 µM in [7] is 90%. In addition, the Activity in data set [9] is given as -78%; in data set [17], -86%. The remaining at 3 h, 5 µM in data set [10] is 62%. Further, the AUC/dose in [11] came out at 110 µM·h. In addition, in data set [13], the remaining at 6 h came out at 27%. Further, the Cmax/dose in data set [16] worked out at 2.4 µM.
